Source: patent US7306804B2 (priority 1998, dated 2007)
Read-outs that look alike come from different tables or passages of the source.

Experiments:
[1] = tested on: PBMCs from control and HIV-1 infected chimpanzees; format: cell-based, chimpanzee
[2] = tested on: anti-peptide antibodies in serum; format: binding, chimpanzee; parameters: key: +, Positive (Titer > 1:100); −, Negative (Titer < 1:100)
[3] = tested on: PBMCs from normal and HIV-positive individuals; format: cell-based, human
[4] = tested on: anti-peptide antibodies in serum; format: binding, human; parameters: key to Anti-peptide antibody response: +, Positive (titer above control); −, Negative (titer below control)

With CRIKQIINMWQGVGKAMYA [Peptide 122] the T-cell proliferative response ([1]; chimpanzee 40, control normal) was “− (−, Negative (SI < 2.0))”, the T-cell proliferative response ([1]; chimpanzee 62, HIV-infected) was “− (−, Negative (SI < 2.0))” and the T-cell proliferative response ([1]; chimpanzee 69, HIV-infected) was “+ (+, Positive (Stimulation Index [SI] > 2.0))”. The T-cell proliferative response ([1]; chimpanzee 73, control normal) was “− (−, Negative (SI < 2.0))”, the T-cell proliferative response ([1]; chimpanzee 80, HIV-infected) was “+ (+, Positive (Stimulation Index [SI] > 2.0))” and the T-cell proliferative response ([1]; chimpanzee 99, HIV-infected) was “− (−, Negative (SI < 2.0))”. For the same substance, the T-cell proliferative response ([1]; chimpanzee 100, HIV-infected) was “+ (+, Positive (Stimulation Index [SI] > 2.0))”, the T-cell proliferative response ([1]; chimpanzee 139, HIV-infected) was “− (−, Negative (SI < 2.0))” and the T-cell proliferative response ([1]; chimpanzee 175, HIV-infected) was “+ (+, Positive (Stimulation Index [SI] > 2.0))”. The T-cell proliferative response ([1]; chimpanzee 247, HIV-infected) was “− (−, Negative (SI < 2.0))”, the T-cell proliferative response ([1]; chimpanzee 310, HIV-infected) was “− (−, Negative (SI < 2.0))” and the Anti-peptide antibody response [2] was “−”. For the same substance, the Anti-peptide antibody response ([2]; chimpanzee 40, control normal) was “−”, the Anti-peptide antibody response ([2]; chimpanzee 73, control normal) was “−” and the “number of HIV+ individuals with positive proliferative responses” value ([3]; 17 HIV+ individuals tested) was “seven”. For the same substance, the T-cell proliferative response ([3]; HIV-positive patient MSf) was “− (−, Negative (SI < 2.0))”, the T-cell proliferative response ([3]; HIV-positive patient MSm) was “− (−, Negative (SI < 2.0))” and the T-cell proliferative response ([3]; HIV-positive patient eight) was “− (−, Negative (SI < 2.0))”. For the same substance, the T-cell proliferative response ([3]; HIV-positive patient eleven) was “− (−, Negative (SI < 2.0))”, the T-cell proliferative response ([3]; HIV-positive patient fifteen) was “+ (+, Positive (Stimulation Index [SI] > 2.0))” and the T-cell proliferative response ([3]; HIV-positive patient five) was “− (−, Negative (SI < 2.0))”. The T-cell proliferative response ([3]; HIV-positive patient four) was “− (−, Negative (SI < 2.0))”, the T-cell proliferative response ([3]; HIV-positive patient fourteen) was “+ (+, Positive (Stimulation Index [SI] > 2.0))” and the T-cell proliferative response ([3]; HIV-positive patient nine) was “+ (+, Positive (Stimulation Index [SI] > 2.0))”. The T-cell proliferative response ([3]; HIV-positive patient one) was “+ (+, Positive (Stimulation Index [SI] > 2.0))”, the T-cell proliferative response ([3]; HIV-positive patient seven) was “− (−, Negative (SI < 2.0))” and the T-cell proliferative response ([3]; HIV-positive patient six) was “− (−, Negative (SI < 2.0))”. For the same substance, the T-cell proliferative response ([3]; HIV-positive patient ten) was “+ (+, Positive (Stimulation Index [SI] > 2.0))”, the T-cell proliferative response ([3]; HIV-positive patient thirteen) was “− (−, Negative (SI < 2.0))” and the T-cell proliferative response ([3]; HIV-positive patient three) was “+ (+, Positive (Stimulation Index [SI] > 2.0))”. For the same substance, the T-cell proliferative response ([3]; HIV-positive patient twelve) was “+ (+, Positive (Stimulation Index [SI] > 2.0))”, the T-cell proliferative response ([3]; HIV-positive patient two) was “− (−, Negative (SI < 2.0))” and the T-cell proliferative response ([3]; Normal-1 (HIV-seronegative)) was “− (−, Negative (SI < 2.0))”. The T-cell proliferative response ([3]; Normal-2 (HIV-seronegative)) was “− (−, Negative (SI < 2.0))”, the “number of HIV+ individuals with positive antibody titers (<1:1280)” value [4] was “None” and the Anti-peptide antibody response ([4]; HIV-positive patient MSf) was “−”. For the same substance, the Anti-peptide antibody response ([4]; HIV-positive patient MSm) was “−”, the Anti-peptide antibody response ([4]; HIV-positive patient eight) was “−” and the Anti-peptide antibody response ([4]; HIV-positive patient eleven) was “−”. The Anti-peptide antibody response ([4]; HIV-positive patient fifteen) was “−”, the Anti-peptide antibody response ([4]; HIV-positive patient five) was “−” and the Anti-peptide antibody response ([4]; HIV-positive patient four) was “−”. For the same substance, the Anti-peptide antibody response ([4]; HIV-positive patient fourteen) was “−”, the Anti-peptide antibody response ([4]; HIV-positive patient nine) was “−” and the Anti-peptide antibody response ([4]; HIV-positive patient one) was “−”. The Anti-peptide antibody response ([4]; HIV-positive patient seven) was “−”, the Anti-peptide antibody response ([4]; HIV-positive patient six) was “−” and the Anti-peptide antibody response ([4]; HIV-positive patient ten) was “−”. The Anti-peptide antibody response ([4]; HIV-positive patient thirteen) was “−”, the Anti-peptide antibody response ([4]; HIV-positive patient three) was “−” and the Anti-peptide antibody response ([4]; HIV-positive patient twelve) was “−”. The Anti-peptide antibody response ([4]; HIV-positive patient two) was “−”, the Anti-peptide antibody response ([4]; Normal-1 (HIV-seronegative)) was “−” and the Anti-peptide antibody response ([4]; Normal-2 (HIV-seronegative)) was “−”.
For “phytohemagglutinin [PHA, reference compound]”, the proliferation ([1]; all nine HIV-infected chimpanzees) was “high levels of proliferation”, the “cpm values, proliferation” value ([1]; two control uninfected chimpanzees) was 15832-20504 cpm and the “SI values, proliferation” value ([3]; HIV+ individuals) was 20.3-23.3. The “cpm values, proliferation” value ([3]; HIV+ individuals) was 108361-127640 cpm and the “SI values, proliferation” value ([3]; normal subjects) was 131-183.
